The values that follow are results of earlier work, collected in patent US9913492B1, “Yolatile liquid inhaler and method of manufacture” (priority 2010, dated 2018).

Each structure is given as a SMILES string.

The conditions of series [1]: at 25 degrees C.

As to `COC(=O)[C@H]1[C@@H](OC(=O)c2ccccc2)C[C@@H]2CC[C@H]1N2C` [cocaine], in the series on adult human beings (comparison with nicotine), the lethal dose is 1000 mg.
`CN1CCCC1c1cccnc1` (centres unmarked) [nicotine]: the vapor pressure in series [1] is 0.53 MBR. Further, the LD50 in the series on rats is 50 mg/kg; with mice, 3 mg/kg. Besides, the lethal dosage with adult human beings (adult human beings) was 40 to 60 mg.

A word on the LD50: it is the dose expected to kill half of the subjects tested.
